The record followed here is ChEMBL document CHEMBL4402594, “Interrogating the Lactate Dehydrogenase Tetramerization Site Using (Stapled) Peptides” (J Med Chem, 2020).

For orientation: ΔTm means the shift of the melting midpoint relative to a reference. The term EC50 denotes the concentration needed to bring the measured effect to its halfway point. Broadly, the Kd is the constant that tells how readily two partners part at equilibrium. Higher therefore signals weaker binding.

In data set [1] the target is T1, L-lactate dehydrogenase A chain (Homo sapiens, UniProt P00338). The data set is described as follows: Binding affinity to human N-terminal His6-tagged LDH-5 expressed in Escherichia coli Rosetta (DE3) assessed as induction of thermal destabilization at 400 uM by nano differential scanning fluorimetry analysis. On the technique in general: Differential scanning fluorimetry follows unfolding on heating by fluorescence.

Data set [2] concerns the target T2, L-lactate dehydrogenase B chain (Homo sapiens, UniProt P07195). As to the kind of experiment: Binding affinity to recombinant full length human His-tagged LDH-1 (1 to 322 residues) expressed in Escherichia coli assessed as induction of thermal destabilization by measuring change in melting temperature at 400 uM by nano differential scanning fluorimetry analysis.
Target sequence in this assay (P07195 2-334 limits assumed): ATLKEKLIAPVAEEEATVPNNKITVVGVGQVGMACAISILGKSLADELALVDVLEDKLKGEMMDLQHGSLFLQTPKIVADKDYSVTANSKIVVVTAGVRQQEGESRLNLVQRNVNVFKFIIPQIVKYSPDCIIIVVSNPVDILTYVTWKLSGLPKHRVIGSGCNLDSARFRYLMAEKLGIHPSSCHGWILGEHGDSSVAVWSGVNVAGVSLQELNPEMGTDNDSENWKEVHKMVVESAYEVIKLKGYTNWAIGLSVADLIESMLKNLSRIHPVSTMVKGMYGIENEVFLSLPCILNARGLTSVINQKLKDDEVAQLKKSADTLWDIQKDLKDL

For data set [3], the target named is L-lactate dehydrogenase A chain (Oryctolagus cuniculus) (UniProt P13491). The data set is described as follows: Binding affinity to rabbit LDH-5 assessed as acid-induced dimerization by measuring fluorescence recovery at 0.75 uM to 400 uM pH 7.6 by nano differential scanning fluorimetry analysis.
The target in data set [4] is T1, L-lactate dehydrogenase A chain. The data set is described as follows: Binding affinity to human N-terminal His6-tagged LDH-5 expressed in Escherichia coli Rosetta (DE3) assessed as induction of thermal destabilization by measuring change in melting temperature at 400 uM by nano differential scanning fluorimetry analysis.
Data set [5] shares this target. The data set is described as follows: Binding affinity to truncated N-terminal His6-tagged human LDH-5 expressed in Escherichia coli Rosetta (DE3) assessed as induction of protein disruption by interacting with tetramerization site by Red-NHS fluorescence dye based microscale thermophoresis analysis. For orientation: Microscale thermophoresis detects binding through changes in fluorescence in a small temperature gradient.

Data set [6] has the same target. The data set is described as follows: Binding affinity to human N-terminal His6-tagged human LDH-5 expressed in Escherichia coli Rosetta (DE3) assessed as induction of protein disruption by interacting with tetramerization site by Red-NHS fluorescence dye based microscale thermophoresis analysis.
For data set [7] the target is unchanged. As to the kind of experiment: Binding affinity to human N-terminal His6-tagged LDH-5 expressed in Escherichia coli Rosetta (DE3) assessed as induction of thermal destabilization by measuring melting temperature at 400 uM by nano differential scanning fluorimetry analysis (reference value: 66 degree C).
The target in data set [8] is T2, L-lactate dehydrogenase B chain. The data set is described as follows: Binding affinity to recombinant full length human His-tagged LDH-1 (1 to 322 residues) expressed in Escherichia coli assessed as induction of thermal destabilization at 400 uM by nano differential scanning fluorimetry analysis.
Target sequence in this assay (P07195 2-334 limits assumed): as above
The target of data set [9] is T1, L-lactate dehydrogenase A chain. The data set is described as follows: Binding affinity to truncated human N-terminal His6-tagged LDH-5 expressed in Escherichia coli Rosetta (DE3) assessed as induction of thermal destabilization by measuring melting temperature at 400 uM by nano differential scanning fluorimetry analysis.
The target of data set [10] is T2, L-lactate dehydrogenase B chain. The data set is described as follows: Binding affinity to full length human N-terminal His6-tagged LDH-H expressed in Escherichia coli Rosetta (DE3) assessed as saturation transfer at N-terminal residues at 800 uM phosphate buffer at pH 7 by 2D NMR-TOCSY analysis.
Target sequence in this assay (P07195 2-334 limits assumed): as above
Data set [11] has the same target. As to the kind of experiment: Binding affinity to full length human N-terminal His6-tagged LDH-H expressed in Escherichia coli Rosetta (DE3) assessed as saturation transfer at C-terminal residues at 800 uM phosphate buffer at pH 7 by 2D NMR-TOCSY analysis.
Target sequence in this assay (P07195 2-334 limits assumed): as above
For data set [12] the target is unchanged. The data set is described as follows: Binding affinity to full length human N-terminal His6-tagged LDH-H expressed in Escherichia coli Rosetta (DE3) assessed as saturation transfer stemming at 800 uM in sodium phosphate buffer at pH 7.6 by WaterLOGSY NMR analysis.
Target sequence in this assay (P07195 2-334 limits assumed): as above
The target is the same in data set [13]. As to the kind of experiment: Binding affinity to recombinant full length human His-tagged LDH-1 (1 to 322 residues) expressed in Escherichia coli at 800 uM by WaterLOGSY NMR analysis.
Target sequence in this assay (P07195 whole entry, the tested form may be a part): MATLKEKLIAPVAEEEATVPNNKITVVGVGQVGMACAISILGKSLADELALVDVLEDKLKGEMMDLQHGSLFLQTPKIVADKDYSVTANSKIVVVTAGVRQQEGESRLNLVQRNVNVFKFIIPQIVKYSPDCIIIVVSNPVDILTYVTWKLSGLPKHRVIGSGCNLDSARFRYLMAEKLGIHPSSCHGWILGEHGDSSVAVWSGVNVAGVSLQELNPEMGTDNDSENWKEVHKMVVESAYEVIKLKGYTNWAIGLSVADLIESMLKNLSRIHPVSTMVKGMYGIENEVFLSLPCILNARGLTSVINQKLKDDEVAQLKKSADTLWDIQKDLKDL
Data set [14] shares this target. As to the kind of experiment: Inhibition of recombinant full length human His-tagged LDH-1 (1 to 322 residues) expressed in Escherichia coli at 800 uM by WaterLOGSY NMR analysis.
Target sequence in this assay (P07195 whole entry, the tested form may be a part): as above
Data set [15] has the same target. The data set is described as follows: Binding affinity to recombinant full length human His-tagged LDH-1 (1 to 322 residues) expressed in Escherichia coli by WaterLOGSY NMR analysis.
Target sequence in this assay (P07195 whole entry, the tested form may be a part): as above
For data set [16] the target is unchanged. The data set is described as follows: Binding affinity to full length human N-terminal His6-tagged LDH-H expressed in Escherichia coli Rosetta (DE3) measured after 5 mins by Red-NHS fluorescent dye based microscale thermophoresis analysis.
Target sequence in this assay (P07195 whole entry, the tested form may be a part): as above

Active and inactive are the calls of the source. The rule behind the calls is not given here. Peptide text beside a SMILES is read from it.

In the case of `CC[C@H](C)[C@H](NC(=O)[C@H](CC(C)C)NC(=O)[C@H](CCCCN)NC(=O)[C@@H]1CSc2c(F)c(F)c(c(F)c2F)SC[C@H](N)C(=O)N[C@@H]([C@@H](C)O)C(=O)N[C@@H](CC(C)C)C(=O)N[C@@H](CCCCN)C(=O)N1)C(N)=O` (HELM PEPTIDE1{C.T.L.K.C.K.L.I.[am]}|CHEM1{[Fc1c(F)c([*:2])c(F)c(F)c1[*:1]]}$PEPTIDE1,CHEM1,1:R3-1:R1|PEPTIDE1,CHEM1,5:R3-1:R2$$$V2.0), the outcome in data set [1], in data set [3] and in data set [8] was Active. Further, the ΔTm in data set [2] was -1.5 °C; in data set [4], -5 °C. Moreover, the result in data set [5] and in [9] was inactive. For the same compound, in data set [6], the EC50 came to 172 µM. For the same compound, the Tm in data set [7] came out at 61 °C.
H-ATLKEKLIAPVAEEEATVP-NH2: the result in data set [10], in data set [11] and in data set [12] was Active. Further, the Activity entry in data set [13] and in [15] was “Not Active” each time. Also, the “inhibition (INH)” value in data set [14] is reported as “Not Active”. This compound had a Kd in data set [16] of 1780 µM.
